The values below are quoted from earlier work in US8097283B2, “Methods and compositions for imaging” (Mount Sinai School of Medicine, priority 2004, dated 2012).

Read-outs that look alike come from different tables or passages of the source.

For series [1] the following is noted: 0.5 T, 37° C.
Test in series [2]: not given
The source holds these as a separate data set.

The conditions of series [3]: mouse.

As to Gd-HPDO3A [Gadoteridol], in series [1], the r1 is 3.7 mM⁻¹ s⁻¹.

Regarding `CNC[C@H](O)[C@@H](O)[C@H](O)[C@H](O)CO.CNC[C@H](O)[C@@H](O)[C@H](O)[C@H](O)CO.O=C([O-])CN(CCN(CC(=O)[O-])CC(=O)O)CCN(CC(=O)O)C(COCc1ccccc1)C(=O)[O-].[Gd+3]` (stereo not drawn) [Gadobenate, Gd-BOPTA], the r1 in series [1] was 4.4 mM⁻¹ s⁻¹.

For the molecule `O=C([O-])CN1CCN(CC(=O)[O-])CCN([C@H](CO)[C@H](O)CO)CCN(CC(=O)[O-])CC1.[Gd+3]` (racemic) [Gadobutrol, Gd-DO3A-butrol], the r1 in series [1] was 3.6 mM⁻¹ s⁻¹.

For the molecule `O=C([O-])CN(CCN(CC(=O)[O-])CC(=O)O)CCN(CC(=O)[O-])CC(=O)O.[Gd+3]` [Gadopenetate, Gd-DTPA], in series [1], the r1 was 3.8 mM⁻¹ s⁻¹. For the same molecule, where the note is “concentration 0.5M”, the Osmolality is given as 1.96 osmol/kg. Besides, the Viscosity in series [2] (concentration 0.5M) is reported as 2.9 cP.

In the case of Mn-DPDP [Mangafodipir], in series [1], the r1 is 1.9 mM⁻¹ s⁻¹. The Osmolality (concentration 0.01M) was 0.29 osmol/kg. Moreover, the Viscosity in series [2] (concentration 0.01M) was 0.7 cP.

Consider `O=C([O-])CN1CCN(CC(=O)[O-])CCN(CC(=O)[O-])CCN(CC(=O)[O-])CC1.[Gd+3]` [Gadoterate, Gd-DOTA], for which the r1 in series [1] is 3.6 mM⁻¹ s⁻¹.

Turning to Gd-DTPA-BMEA [Gadoversetamide], the r1 in series [1] is 4.7 mM⁻¹ s⁻¹.

B1: HDL-apoAI: apoAI moiety of HDL in the circulation of a mouse (protein, UniProt Q00623 25-264, looked up)
Apolipoprotein A-I: DEPQSQWDKVKDFANVYVDAVKDSGRDYVSQFESSSLGQQLNLNLLENWDTLGSTVSQLQERLGPLTRDFWDNLEKETDWVRQEMNKDLEEVKQKVQPYLDEFQKKWKEDVELYRQKVAPLGAELQESARQKLQELQGRLSPVAEEFRDRMRTHVDSLRTQLAPHSEQMRESLAQRLAELKSNPTLNEYHTRAKTHLKTLGEKARPALEDLRHSLMPMLETLKTQVQSVIDKASETLTAQ
Consider B1, for which, in series [3], the “t1/2 in the circulation” value is given as “roughly 10 h”.
